Experimental data published in PMC6956158, “In Vitro and In Vivo Assessment of Metabolic Drug Interaction Potential of Dutasteride with Ketoconazole” (Pharmaceutics, 2019).

Columns and labels:
[1] = Basic (simple static) model prediction of clinical DUT-KET interaction; design: species or system human; conditions: clinical prediction from HLM data, R = 1 + Imax,u / Ki
Procedure: Supplementary Materials: In Vitro and In Vivo
Assessment of Metabolic Drug Interaction Potential of Dutasteride with Ketoconazole
Table S1. Previous literatures on bioanalytical methods for DUT using HPLC system coupled with ultraviolet-visible (UV/Vis) and tandem mass (MS/MS) detector.
Detector Matrix Sample Sample Preparation Mobile Phase Conc. Range Validation Ref.
LC-MS/MS Human plasma 300 µL LLE Isocratic 0.1-25 ng/mL Full
LC-MS/MS Human plasma 500 µL LLE Gradient 0.1-25 ng/mL Full
LC-MS/MS Human plasma 500 µL SPE Gradient 1-100 ng/mL Full
LC-MS/MS Human plasma 500 µL SPE Isocratic 0.1-10 ng/mL Full
LC-MS/MS Human plasma 900 µL LLE Isocratic 0.5-50 ng/mL Full
LC-MS/MS Human plasma 1000 µL LLE Gradient 0.05-4 ng/mL Full
LC-MS/MS Human Serum 2000 µL LLE NR 0.025-2.5 ng/mL Partial
LC-MS/MS Human Urine 5000 µL SPE Gradient NR Partial
LC-MS/MS Rat plasma 100 µL LLE Isocratic 1-500 ng/mL Partial
LC-MS/MS Rat plasma 100 µL LLE Isocratic 5-400 ng/mL Partial
HPLC-UV Rat blood 100 µL Deproteinization Gradient NR Partial […]
where the R is the predicted ratio of the AUC of DUT in the presence and absence of KET, the Imax,u is the maximum unbound plasma concentration of KET, and the Ki is the unbound inhibition constant of KET determined in vitro. Since IC50 only was determined in this study, it was converted to Ki using the following equation for competitive inhibition. […]

[2] = system: type-1 5AR; design: method as in PMID 16964191, PMID 16719800; conditions: previous in vitro studies; cited from earlier work
[3] = Previous and preliminary rat studies of intravenous DUT; type: in vivo; conditions: rats, preliminary study
[4] = NADPH-dependent metabolism (disappearance) of DUT in human liver microsomes; type: in vitro ADME; conditions: HLM
Procedure: In vitro metabolism studies in RLM and HLM were conducted as previously reported with slight modifications. To investigate the NADPH-dependent metabolism (via phase I enzymes including CYPs) of DUT in RLM and HLM, the disappearance of DUT at various concentrations ranging from 1 to 100 μM in the presence of NADPH was determined in RLM and HLM. The substrate (DUT) concentration ([S]; μM) versus the initial metabolic rate (V; pmol/min/mg protein) data were interpreted based on the Michaelis–Menten kinetics, and relevant parameters were estimated by nonlinear regression analysis (GraphPad Prism ver. 5.01; GraphPad Software, San Diego, CA, USA) based on the following Michaelis–Menten equation: V = Vmax × [S]/Km + [S] where Vmax and Km are the maximal metabolic rate and Michaelis–Menten constant, respectively. The intrinsic metabolic clearance (CLint) was calculated by dividing Vmax by Km. The unbound Km (Km,u) was calculated as the Km multiplied by the unbound fraction in microsomes (fu,mic). The unbound CLint (CLint,u) was calculated as the CLint divided by the fu,mic.
To investigate the metabolic interaction potential between DUT and KET, the disappearance of DUT (5 μM) in RLM and HLM was determined under the absence and presence of KET at various concentrations ranging from 1 to 5000 nM. A microsomal reaction mixture was prepared as follows (total volume: 0.2 mL): 1 mM NADPH, 10 mM MgCl2, substrate (DUT), and inhibitor (KET), RLM or HLM (1 mg/mL), and 50 mM phosphate buffer. […] The unbound fractions of DUT in rat plasma, RLM, human plasma, and HLM were measured using a rapid equilibrium dialysis (RED) device (Thermo Fisher Scientific, Inc., Waltham, MA, USA) as described in a previous study. […] The fraction unbound was calculated as the ratio of the drug concentrations in the “buffer” chamber to those in the “sample” chamber. The blood-to-plasma concentration ratio (RB) of DUT was determined as described previously. […] The concentrations of DUT in the plasma sample were determined by the validated HPLC analysis.

## C[C@]12C=CC(=O)N[C@@H]1CC[C@@H]1[C@@H]2CC[C@]2(C)[C@@H](C(=O)Nc3cc(C(F)(F)F)ccc3C(F)(F)F)CC[C@@H]12 [DUT, Dutasteride]
[1]
  R, predicted ratio of the AUC of DUT in the presence and absence of KET: 2.88
[2]
  more potent inhibition of type-1 5AR compared to finasteride: 45 fold
[3]
  renal excretion of DUT in the unchanged form: less than 1 % of intravenously administered dose
[4]; DUT 1 to 100 μM, NADPH
  Vmax: 47.7 ± 6.3 pmol/min/mg protein
[4]; human, human liver microsomes, DUT 1 to 100 μM, NADPH
  Km: 51.6 ± 7.3 µM
[4]; human, human liver microsomes, Vmax divided by Km
  microsomal CLint: 0.928 ± 0.069 µL/min/mg
